What is called inhibition is the drop in the measured response relative to a control, in per cent. A word on the Ki: it is a dissociation constant, usually derived from enzyme kinetics or from competition with a known ligand.

The assay addresses human μ-opiate receptor (Homo sapiens, UniProt P35372). The assay can be described thus: Affinity for the human μ-opiate receptor ([3H]-naloxone displacement, SPA, CHO-K1 membrane preparation). The format is binding. Conditions: for inhibition at 1 µM: read-out: μ-Opioid receptor, % inhibition [1 μM]; for Ki: read-out: μ-Opioid receptor, Ki.

Like-named read-outs stand apart in the source and are kept apart here.

human μ-opiate receptor, sequence (P35372 whole entry): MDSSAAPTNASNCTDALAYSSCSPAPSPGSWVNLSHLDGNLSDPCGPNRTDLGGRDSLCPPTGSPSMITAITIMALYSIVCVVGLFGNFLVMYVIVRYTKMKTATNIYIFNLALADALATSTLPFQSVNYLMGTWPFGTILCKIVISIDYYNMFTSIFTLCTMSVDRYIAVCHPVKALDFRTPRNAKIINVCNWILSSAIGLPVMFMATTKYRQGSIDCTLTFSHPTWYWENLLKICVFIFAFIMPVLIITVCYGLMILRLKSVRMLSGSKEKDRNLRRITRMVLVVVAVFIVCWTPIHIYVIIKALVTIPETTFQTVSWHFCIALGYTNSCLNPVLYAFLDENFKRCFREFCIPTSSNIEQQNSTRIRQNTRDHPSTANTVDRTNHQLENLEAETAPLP

Turning to `CN(C)C(c1cccc(F)c1)C1CCC(CCNC(=O)c2cc(F)c(Cl)cc2Cl)CC1` (single isomer, unassigned) [compound 438, 2,4-dichloro-N-(2-{4-[dimethylamino-(3-fluoro-phenyl)-methyl]-cyclohexyl}-ethyl)-5-fluoro-benzamide], the inhibition at 1 µM worked out at 87% and the Ki stood at 100 nM.

Regarding `Cc1oc(-c2ccc(Cl)cc2)cc1C(=O)NC1CCC(C(c2cccc(F)c2)N(C)C)CC1` (centres unmarked) [compound 285, 5-(4-chloro-phenyl)-2-methyl-furan-3-carboxylic acid {4-[dimethylamino-(3-fluoro-phenyl)-methyl]-cyclohexyl}-amide], the inhibition at 1 µM was determined as 71%.

For the compound `Cc1cc(C(=O)NC2CCC(C(c3ccccc3)N(C)C)CC2)no1` (centres unmarked) [compound 282, 5-methyl-isoxazole-3-carboxylic acid [4-(dimethylamino-phenyl-methyl)-cyclohexyl]-amide], the inhibition at 1 µM was determined as 73% and the Ki turned out to be 110 nM.

Regarding `Cc1cccc(C(=O)NCCC2CCC(C(c3ccc(F)cc3)N(C)C)CC2)c1` (centres unmarked) [compound 429, N-(2-{4-[dimethylamino-(4-fluoro-phenyl)-methyl]-cyclohexyl}-ethyl)-3-methyl-benzamide], the inhibition at 1 µM was 88% and the Ki turned out to be 55 nM.

In the case of `CN(C)C(c1cccs1)C1CCC(NC(=O)CC(C)(C)C)CC1` (centres unmarked) [compound 200, N-[4-(dimethylamino-thiophen-2-yl-methyl)-cyclohexyl]-3,3-dimethyl-butyramide], the inhibition at 1 µM stood at 94% and the Ki is 29 nM.

As to `Cc1oc(-c2ccccc2)cc1C(=O)NCC1CCC(C(c2cccc(F)c2)N(C)C)CC1` (centres unmarked) [compound 353, 2-methyl-5-phenyl-furan-3-carboxylic acid {4-[dimethylamino-(3-fluoro-phenyl)-methyl]-cyclohexylmethyl}-amide], the inhibition at 1 µM stood at 87% and the Ki was found to be 96 nM.

For the compound `CN(C)C(c1ccc(F)cc1)C1CCC(NC(=O)c2cccc(Br)c2)CC1` (centres unmarked) [compound 263, 3-bromo-N-{4-[dimethylamino-(4-fluoro-phenyl)-methyl]-cyclohexyl}-benzamide], the inhibition at 1 µM worked out at 78% and the inhibition constant (Ki) is 28 nM.

Regarding `CN(C)C(c1ccccc1)C1CCC(NC(=O)c2ccccc2Br)CC1` (centres unmarked) [compound 286, 2-bromo-N-[4-(dimethylamino-phenyl-methyl)-cyclohexyl]-benzamide], the inhibition at 1 µM is 71% and the inhibitory constant (Ki) stood at 54 nM.

As to `CSc1ncccc1C(=O)NCC1CCC(C(c2ccc(F)cc2)N(C)C)CC1` (centres unmarked) [compound 381, N-{4-[dimethylamino-(4-fluoro-phenyl)-methyl]-cyclohexylmethyl}-2-methyl-sulfanyl-nicotinamide], the “μ-Opioid receptor, % inhibition [1 μM]” value was determined as 83% and the Ki was determined as 99 nM.

With `CN(C)C(c1ccccc1)C1CCC(CNC(=O)c2ccc(F)c(F)c2)CC1` (single isomer, unassigned) [compound 357, N-[4-(dimethylamino-phenyl-methyl)-cyclohexylmethyl]-3,4-difluoro-benzamide], the Ki came out at 60 nM. For the same compound, the “μ-Opioid receptor, % inhibition [1 μM]” value (1 µM) is 86%.

With `COc1c(C(=O)NC2CCC(C(c3ccc(F)cc3)N(C)C)CC2)csc1Cl` (centres unmarked) [compound 211, 5-chloro-4-methoxy-thiophene-3-carboxylic acid {4-[dimethylamino-(4-fluoro-phenyl)-methyl]-cyclohexyl}-amide], the inhibition at 1 µM stood at 92%.

Regarding `Cc1cc(C(=O)NC2CCC(C(c3ccccc3)N(C)C)CC2)n(C(C)(C)C)n1` (centres unmarked) [compound 247, 2-tert-butyl-5-methyl-2H-pyrazole-3-carboxylic acid [4-(dimethylamino-phenyl-methyl)-cyclohexyl]-amide], the Ki was determined as 36 nM. For the setting “1 µM”, the “μ-Opioid receptor, % inhibition [1 μM]” value is on record as 82%.

As for `CC(Oc1ccccc1)C(=O)NCC1CCC(C(c2ccccc2)N(C)C)CC1` (centres unmarked) [compound 323, N-[4-(dimethylamino-phenyl-methyl)-cyclohexylmethyl]-2-phenoxy-propionamide], the inhibition at 1 µM was 95% and the inhibitory constant (Ki) worked out at 15 nM.

Turning to `Cc1oc(-c2ccc(Cl)cc2)cc1C(=O)NC1CCC(C(c2cccs2)N(C)C)CC1` (centres unmarked) [compound 229, 5-(4-chloro-phenyl)-2-methyl-furan-3-carboxylic acid [4-(dimethylamino-thiophen-2-yl-methyl)-cyclohexyl]-amide], the inhibition at 1 µM stood at 86% and the Ki was 39 nM.

For the compound `Cc1ccccc1C(=O)NCC1CCC(C(c2ccccc2)N(C)C)CC1` (single isomer, unassigned) [compound 325, N-[4-(dimethylamino-phenyl-methyl)-cyclohexylmethyl]-2-methyl-benzamide], the Ki was 34 nM. Besides, the “μ-Opioid receptor, % inhibition [1 μM]” value (1 µM) is 94%.

For the compound `COc1ccc(C(=O)NC2CCC(C(c3cccs3)N(C)C)CC2)c(OC)c1` (centres unmarked) [compound 202, N-[4-(dimethylamino-thiophen-2-yl-methyl)-cyclohexyl]-2,4-dimethoxy-benzamide], the inhibition at 1 µM amounted to 94% and the Ki came out at 31 nM.

Consider `CN(C)C(c1ccc(Cl)cc1)C1CCC(CCNC(=O)c2ccc(F)cc2F)CC1` (centres unmarked) [compound 436, N-(2-{4-[(4-chloro-phenyl)-dimethylamino-methyl]-cyclohexyl}-ethyl)-2,4-difluoro-benzamide], for which the inhibition at 1 µM was found to be 91% and the inhibition constant Ki worked out at 29 nM.

Consider `CSc1ncccc1C(=O)NC1CCC(C(c2cccs2)N(C)C)CC1` (centres unmarked) [compound 208, N-[4-(dimethylamino-thiophen-2-yl-methyl)-cyclohexyl]-2-methylsulfanyl-nicotinamide], for which the inhibition at 1 µM came to 92% and the Ki was determined as 130 nM.

For the compound `CCCC(=O)N(CCc1c[nH]c2ccccc12)C1CCC(C(c2ccccc2)N(C)C)CC1` (centres unmarked) [compound 181, N-(2-(1H-indol-3-yl)ethyl)-N-(4-((dimethylamino)(phenyl)methyl)-cyclohexyl)butyramide], the inhibition at 1 µM stood at 95% and the Ki is 3.9 nM.

Consider `Cc1nc(-c2ccc3c(c2)CCO3)sc1C(=O)NC1CCC(C(c2cccs2)N(C)C)CC1` (centres unmarked) [compound 283, 2-(2,3-dihydro-benzofuran-5-yl)-4-methyl-thiazole-5-carboxylic acid [4-(dimethylamino-thiophen-2-yl-methyl)-cyclohexyl]-amide], for which the inhibition at 1 µM stood at 72% and the Ki is 150 nM.

With `CN(C)C(c1ccccc1)C1CCC(CCNC(=O)C2(c3ccc(Cl)cc3)CCCC2)CC1` (centres unmarked) [compound 449, 1-(4-chloro-phenyl)-cyclopentane-carboxylic acid {2-[4-(dimethylamino-phenyl-methyl)-cyclohexyl]-ethyl}-amide], the inhibition at 1 µM stood at 88% and the Ki came to 36 nM.

Regarding `CN(C)C(c1cccc(F)c1)C1CCC(NC(=O)c2csc(-c3ccccc3)n2)CC1` (centres unmarked) [compound 264, 2-phenyl-thiazole-4-carboxylic acid {4-[dimethylamino-(3-fluoro-phenyl)-methyl]-cyclohexyl}-amide], the inhibition at 1 µM came out at 78% and the Ki was 110 nM.

Consider `COc1cccc(OC)c1C(=O)NC1CCC(C(c2ccccc2)N(C)C)CC1` (centres unmarked) [compound 287, N-[4-(dimethylamino-phenyl-methyl)-cyclohexyl]-2,6-dimethoxy-benzamide], for which the inhibition at 1 µM amounted to 71% and the Ki was determined as 150 nM.
